Several values for one entry are separate records, joined by “and”; a condition that tells them apart may be missing. Equal values may be shown once. Read-outs that look alike come from different tables or passages of the source.
Tests used:
[1] = system: 4405 melanoma cell line; assay: Proliferation assay (MTT); format: cell-based; settings: Table 15; melanoma 4405
Summary of the method: (§1)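 Cells grown at 37° C, 5% CO2 in medium with 10% FCS, then exposed to test compounds for 5 days. Proliferation read by MTT reduction over 3-4 hrs; IC50 taken from semi-log plots of % control proliferation against log dose.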

[2] = system: A2780 (Ovarian); assay: Proliferation assay (MTT); format: cell-based; settings: Homo sapiens, Table 2.1
Summary of the method: as §1

[3] = system: CCRF-CEM (Leukemic); assay: Proliferation assay (MTT); format: cell-based; settings: Homo sapiens, CCRF-CEM
Summary of the method: as §1

[4] = system: DU145 (Prostate); assay: Proliferation assay (MTT); format: cell-based; settings: Homo sapiens, DU-145, Table 2.1
Summary of the method: as §1

[5] = system: HCT-15 (Colorectal); assay: Proliferation assay (MTT); format: cell-based; settings: Homo sapiens; Table 2.1; Colorectal HCT-15
Summary of the method: as §1

[6] = system: HT-29 (Colorectal); assay: Proliferation assay (MTT); format: cell-based; settings: Homo sapiens, Colorectal HT-29
Summary of the method: as §1

[7] = system: HTB-138 (Glioma); assay: Proliferation assay (MTT); format: cell-based; settings: Table 2.1; Glioma HTB-138
Summary of the method: as §1

[8] = system: IGR-3 (Melanoma); assay: Proliferation assay (MTT); format: cell-based
Summary of the method: as §1

[9] = system: LNCaP (Prostate); assay: Proliferation assay (MTT); format: cell-based; settings: Homo sapiens, Table 2.1
Summary of the method: as §1

[10] = system: MCF-7 breast cancer cell line; assay: Proliferation assay (MTT); format: cell-based; settings: Homo sapiens, MCF7; Table 2.1; Breast MCF-7
Summary of the method: as §1

[11] = system: MM96L melanoma cell line; assay: Proliferation assay (MTT); format: cell-based; settings: Homo sapiens, Table 15
Summary of the method: as §1

[12] = system: NCI-H23 (Lung); assay: Proliferation assay (MTT); format: cell-based; settings: Homo sapiens, Table 2.1
Summary of the method: as §1

[13] = system: NCI-H460 (Lung); assay: Proliferation assay (MTT); format: cell-based; settings: Homo sapiens
Summary of the method: as §1

[14] = system: PC3 prostate cancer cell line; assay: Proliferation assay (MTT); format: cell-based
Summary of the method: as §1

[15] = system: RM melanoma cell line; assay: Proliferation assay (MTT); format: cell-based; settings: Table 15
Summary of the method: as §1

[16] = system: SKMe128 melanoma cell line; assay: Proliferation assay (MTT); format: cell-based; settings: Table 15
Summary of the method: as §1

[17] = Toxicity in HPAC tumour bearing mice (weight, histopathology, serum biochemistry); format: in vivo, Athymic nu/nu BALB/c mice
Excerpt: Subconfluent (80%) flasks of HPAC cells were trypsinised, washed in Hanks balanced salt solution (Sigma), resuspended in dubellco's minimal essential medium (Sigma) and an equal volume of Matrigel™ (Becton Dickson) at a density of 3.7×10^7 cells per ml. Athymic nu/nu BALB/c mice were s.c. inoculated with 3.7×10^6 HPAC cells bi-laterally midway along the dorsal surface. For the HMC (n=3 per dosage regimen) and control groups (n=2), treatment commenced five days post inoculation to allow tumour formation. HMC was formulated 20% HPBCD and delivered i.p. daily for 15 days. The control group received equivalent (weight:weight) i.p. doses of 20% HPBCD. Tumour measurements commenced on day 5 post inoculation (10×10 mm^2) and were measured in 2 dimensions, length (a) and width (b), using calipers. Tumor weight (W) was calculated by the formula W=ab2/2, where a, is the longer of the 2 measurements (Odwyer et al., 1994). Tumour proliferation curves were analyzed with respect to maximal tumour inhibition (treated/control, TIC). On sacrifice, liver, kidney, femur, stomach and colon tissue were fixed in buffered formalin, embedded in paraffin, sections cut and stained with H&E. Stained sections were then submitted to Rothwell consulting for histopathology analysis. Serum biochemistry was conducted on bloods taken from control, vehicle control and HMC treatment groups. Serum analysis was conducted by Veterinary Clinical pathology (U. Syd).
Histopathological examination of haematoxylin and eosin-stained sections cut from formalin-fixed tissues from two series of experimental mice was made. The liver, kidney, stomach and colon were examined for evidence of toxic damage, the spleen and bone marrow for evidence of myelosuppression and the tumour for degree of necrosis. A score of 0-5 was allocated to each tumour specimen for the degree of necrosis present, a 0 score representing, no necrosis and a score of 5, total necrosis. The sections were scored ‘blind’ on two separate occasions and the final score given in the results is the mean of these two scores.
Alakalines phosphatase (ALP), alanine transferase (ALT) and creatine (Cre) were assessed in HMC treated vs control animals. ALP and Cre levels were similar to control and fell within normal ranges (for rat) however, ALT levels in vehicle control and HMC treated groups were much lower than no treatment control levels.

[18] = system: Mel-RM melanoma cell line; assay: HMC combination with doxorubicin (synergy); format: cell-based; settings: for IC50: Table 12, single agent; for Change Factor (Combined): 5-day combination
Description: IC50 values were determined for each cell line. Cells were seeded in 96-well plates at an appropriate cell density as determined from growth kinetics analysis and cultured for 5 days in the absence and presence of the test compounds. […] IC50 values were calculated from semi-log plots of % of control proliferation on the y-axis against log dose on the x-axis.
3-D model analysis of the cytotoxic interaction between drug A and drug B enables the representation of predicted inhibitory effect of two drugs in combination in 3 dimensions to reveal actual regions of synergy or antagonism. […] Theoretical Additivity was calculated from the cytotoxicities of drug A and drug B as monotherapies using the following formula which assumes the drugs are mutually exclusive inhibitors: […]
HMC synergy with doxorubicin was assessed either in combination over 5 days exposure or in sequence (HMC→doxorubicin) against the Mel-RM melanoma cell line.

[19] = individual HMC treated mice, 100 mg/kg, listed as HMC

COc1ccc(C2c3ccc(O)cc3OCC2c2ccc(O)cc2)cc1 (stereo not shown) [Compound 1, 3-(4-hydroxyphenyl)-4-(4-methoxyphenyl)chroman-7-ol]
IC50 [1]: 1.46 ± 0.18 µM | IC50 [2]: 1.58 ± 0.59 µM | IC50 ([3]; Table 2.1, Leukemic CCRF-CEM): 1.9 µM | IC50 ([3]; Table 2.2, Leukaemia CCRF-CEM): 2 ± 0.97 µM | IC50 [4]: 3.78 µM | IC50 [5]: 37.8 ± 33 µM | IC50 ([6]; HT-29, Table 2.1): 3.7 ± 1.4 µM | IC50 ([6]; HT-29, Table 2.2): 5.4 ± 1.8 µM | IC50 [7]: 1.9 ± 0.27 µM | IC50 ([8]; Table 2.1, Melanoma IGR-3): 0.53 ± 0.02 µM | IC50 ([8]; Table 15, melanoma IgR3): 0.51 ± 0.08 µM | IC50 [9]: 4.52 µM | IC50 [10]: 7.15 ± 7 µM | IC50 [11]: 1.31 ± 0.38 µM | IC50 [12]: 3.75 ± 2.5 µM | IC50 ([13]; NCI-H460, Table 2.1, Lung NCI-H460): 2.23 ± 0.15 µM | IC50 ([13]; NCI-H460, Table 2.2, NSC Lung NCI-H460): 2.8 ± 2 µM | IC50 ([14]; Table 2.1): 2.9 ± 0.92 µM | IC50 ([14]; Table 2.2): 2.5 ± 1 µM | IC50 [15]: 1.4 ± 1.6 µM | IC50 [16]: 0.68 ± 0.16 µM | toxicity as determined by weight loss ([17]; 100 mg/kg daily for 15 days): no signs of toxicity | toxicity to major organs by histopathology ([17]; 100 mg/kg to mice): not toxic to major organs | ALP (serum) [17, 19]: 111 U/L and 100 U/L and 74 U/L | ALT (serum) [17, 19]: 482 U/L and 494 U/L and 505 U/L | Cre (serum) [17, 19]: 8 uM (2×) and 17 uM | Urea (serum) [17, 19]: 8.11 mM and 7.79 mM and 7.27 mM | IC50 ([18]; 120 h, 5 days exposure, read-out: IC50, Combined (monotherapy)): 0.54 µM | Change Factor (HMC first) ([18]; HMC 1 uM 24 hr then doxorubicin 24 hr): 1.62 | Change Factor (HMC first) ([18]; HMC 2 uM 24 hr then doxorubicin 24 hr): 12.22 | chemosensitisation of Mel-RM cells to camptothecin (change in IC50) ([18]; HMC 2 μM, sequence protocol): ~12 fold | IC50 ([18]; 24 hr exposure, read-out: IC50, 24 hr (monotherapy)): 50.5 µM | Change Factor (Combined) ([18]; doxorubicin with HMC 1 uM): −2.06 | Change Factor (Combined) ([18]; doxorubicin with HMC 2 uM): ?HMC effect
